Source: US12227771B2, “Expression systems and methods of use thereof” (Janssen Pharmaceutica NV, priority 2019, dated 2025)
Several values for one entry are separate records, joined by “and”; a condition that tells them apart may be missing. Equal entries are not always repeated. Where two headings read alike, the source gives them in different places.

Columns and labels:
α9α10 nAChR [1] = molecular target: T1, α9α10 nAChR (Homo sapiens, UniProt Q9GZZ6+Q9UGM1); experiment: cell-based; type: cell-based; conditions: for rank order of potency of antagonists: dose response curves
T1 construct: expressed in transfected cells; host or cells: HEK293T
Text: After three washes, the plates were placed in the FLIPR stage. […] Maximal FLIPR responses to ACh were plotted (FIGS. 3A-C).
Target sequence in this assay (Q9GZZ6 25-450): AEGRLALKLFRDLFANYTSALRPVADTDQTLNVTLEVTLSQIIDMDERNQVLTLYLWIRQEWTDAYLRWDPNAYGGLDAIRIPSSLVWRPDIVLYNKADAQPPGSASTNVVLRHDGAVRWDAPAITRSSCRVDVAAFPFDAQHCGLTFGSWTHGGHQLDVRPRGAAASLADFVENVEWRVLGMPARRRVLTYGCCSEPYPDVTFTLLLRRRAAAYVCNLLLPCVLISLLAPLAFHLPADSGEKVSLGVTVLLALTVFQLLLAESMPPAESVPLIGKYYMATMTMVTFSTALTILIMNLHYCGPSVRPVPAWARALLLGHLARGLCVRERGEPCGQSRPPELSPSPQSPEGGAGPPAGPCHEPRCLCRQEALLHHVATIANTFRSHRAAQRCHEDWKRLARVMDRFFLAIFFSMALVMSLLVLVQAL
Target sequence in this assay (Q9UGM1 23-479): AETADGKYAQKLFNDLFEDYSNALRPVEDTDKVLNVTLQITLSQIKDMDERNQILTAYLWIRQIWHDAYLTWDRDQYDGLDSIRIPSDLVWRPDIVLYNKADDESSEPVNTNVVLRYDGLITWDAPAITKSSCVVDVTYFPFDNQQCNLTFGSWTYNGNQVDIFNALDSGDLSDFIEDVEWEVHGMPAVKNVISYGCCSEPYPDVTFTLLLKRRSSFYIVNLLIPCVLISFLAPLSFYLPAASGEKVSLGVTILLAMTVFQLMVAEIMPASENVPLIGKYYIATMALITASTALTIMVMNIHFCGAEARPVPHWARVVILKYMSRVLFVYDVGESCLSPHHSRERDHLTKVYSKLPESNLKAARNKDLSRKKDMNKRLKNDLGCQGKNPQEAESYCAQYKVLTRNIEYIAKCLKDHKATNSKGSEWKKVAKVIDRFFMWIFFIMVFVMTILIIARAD

α9α10 nAChR [2] = molecular target: T1, α9α10 nAChR; experiment: FLIPR calcium assay of HEK293T cells co-transfected with α9α10 nAChR and cDNA clones, response evoked by 200 μM ACh; type: cell-based; conditions: 200 μM ACh; for FLIPR Response (Fold/Baseline): 180 s
Procedure: Human embryonic kidney 293T (HEK293T) cells were cultured in high glucose DMEM medium supplemented with 10% FBS, sodium pyruvate and penicillin/streptomycin. Prior to transfection, cells were seeded at ˜80-90% confluence in 384-well fluorescence imaging plate reader (FLIPR) assay plates. After a 4 hour (hr) incubation, wells of cells were individually co-transfected with human α9α10 nAChR plus one of 20,000 clones from cDNA libraries encoding most all human proteins (Origene Technologies; Rockville, Md.; Broad Institute; Cambridge, Mass.) using Fugene HD (Promega; Madison, Wis.) according to the manufacture's protocol. After two days incubation, cells were washed three times with assay buffer (137 mM NaCl, 4 mM KCl, 2 mM CaCl2, 1 mM MgCl2, 5 mM glucose, 10 mM HEPES pH7.4) and loaded with Calcium5 dye (Molecular Devices; San Jose, Calif.) and 1.25 mM probenecid for 1 hr at room temperature (RT). After three washes, the plates were placed in the FLIPR stage.
To further characterize the regulation of α9α10 nAChR expression, HEK293T cells were co-transfected with α9α10 nAChR and each of CHAT, TMIE, TMEM100, TMEM132A, TMEM132C, TMEM132D, TMEM132E and TNFRSF10A individually and in combination (Table 2).
Target sequence in this assay (Q9UGM1 23-479): as above
Target sequence in this assay (Q9GZZ6 25-450): as the sequence (Q9GZZ6 25-450) above

`CN1[C@@H]2CC[C@H]1C[C@@H](OC(=O)C(CO)c1ccccc1)C2` (stereo partly drawn) [Atropine, atropine] gave an IC50 (α9α10 nAChR [1]; HEK293T, α9α10 nAChR + CHAT + TMIE, 200 μM ACh, read-out: Antagonist IC50) of 340 µM, an IC50 (α9α10 nAChR [1]; HEK293T, α9α10 nAChR + CHAT, 200 μM ACh, read-out: Antagonist IC50) of 12.3 µM and an IC50 (α9α10 nAChR [1]; HEK293T, α9α10 nAChR + TMIE, 200 μM ACh, read-out: Antagonist IC50) of 15.7 µM. The “rank order of potency of antagonists” value (α9α10 nAChR [1]; 200 μM ACh) was “MLA>strychnine>atropine>nicotine”.

With `CN1CCCC1c1cccnc1` (stereo not drawn) [Nicotine, nicotine] the IC50 (α9α10 nAChR [1]; Antagonist IC50) was 384 µM and 544 µM and 1500 µM and the “rank order of potency of antagonists” value (α9α10 nAChR [1]; 200 μM ACh) was “MLA>strychnine>atropine>nicotine”.

With `O=C1C[C@@H]2OCC=C3CN4CC[C@]56c7ccccc7N1[C@H]5[C@H]2[C@H]3C[C@H]46` [Strychnine, strychnine] the IC50 (α9α10 nAChR [1]; Antagonist IC50, HEK293T, α9α10 nAChR + CHAT + TMIE, 200 μM ACh) was 1.8 µM, the IC50 (α9α10 nAChR [1]; Antagonist IC50, HEK293T, α9α10 nAChR + CHAT, 200 μM ACh) was 1.3 µM and the IC50 (α9α10 nAChR [1]; Antagonist IC50, HEK293T, α9α10 nAChR + TMIE, 200 μM ACh) was 0.76 µM.

With “TNFRSF10A: Tumor necrosis factor receptor superfamily member 10A, SEQ ID NO: 10, co-transfected cDNA clone” the “FLIPR Response (Fold/Baseline)” value (α9α10 nAChR [2]; HEK293T co-transfected with α9α10 nAChR + CHAT plus the named gene) was 2.0 Fold/Baseline, the “FLIPR Response (Fold/Baseline)” value (α9α10 nAChR [2]; HEK293T co-transfected with α9α10 nAChR plus the named gene) was 0.4 Fold/Baseline and the “functional expression of co-transfected α9α10 nAChR in cDNA library screen” value (α9α10 nAChR [2]; HEK293T, 20,000 cDNA clones) was “enabled functional expression”.
